Laboratory results taken from patent US12492225B2, “Melanocyte-regulating peptides” (IDP DISCOVERY PHARMA, S.L., priority 2019, dated 2025).

System: B16-F10 melanoma cells
Assay: Measurement of melanin content in B16-F10 melanoma cells
Assay type: cell-based, mouse
Details: KA at 1 uM; FIG. 1
Experimental: B16-F10 melanoma cells were seeded into 25 cm^2 cell culture flask and incubated for 24 h. Then, 0.1 μM α-MSH was added and cells were treated with the aforementioned peptides at doses lower than their respective IC50 for a total of 48 h incubation. After washing twice with phosphate buffered saline, cells were dissolved in 1 mL of 1N NaOH. For measurement of melanin content, 100 μL aliquots of solution were then placed in 96-well plates and the absorbance was measured at 450 nm using microplate reader. Anti-melanin activity was expressed by the percentage of melanin to that of untreated melanoma cells. As positive control Kojic Acid (KA) was used at different concentrations (0.1, 1 and 10 μM).

O=c1cc(CO)occ1O [KA, kojic acid]
reduction of melanin compared with the peptides of the invention (F22) at the same concentration: the reduction was substantially lower
